Assay results reported in US6809070B2, “Toilet bar having a latent acidifier” (Unilever Home & Personal Care USA, division of Conopco, Inc., priority 2001, dated 2004).
Where two headings read alike, the source gives them in different places.

Tests used:
[1] = pH of 1% by wt. aqueous solutions; format: physicochemical
[2] = Aqueous slurry pH (10% slurry, 25 C); format: physicochemical
Protocol: Various inventive and comparative compounds were formulated with three separate toilet bar bases, 1, 2, and 3 at the 10% by wt. level and their aqueous slurry pH (see method below) was compared to a control shown in table 1. Inventive latent acidifiers are designated “I” and comparative compounds are designated “C”. The bar bases were formulated by blending all ingredients except the latent acidifier for about 30-40 minutes at temperatures of 180-230 F. After that, the latent acidifier is added and mixed for another few minutes until a uniform mixture is obtained. […] The latent acidifier could also be added in the chip mixer after the batch has been cooled and solidified in a spray dryer or a chill roll. This is followed by extrusion and stamping into a bar.
Method for Measuring Aqueous Slurry pH
Nine grams of the base formula and one gram of the latent acidifier (or a comparative compound) were blended together with 90 g of water to create a 10% slurry. The pH of the slurry was then measured at 25 C.

[3] = 1% by wt. aqueous solution of the compound
[4] = compound at 10% by wt. in toilet bar Base 1, 10% slurry, 25 C
[5] = compound at 10% by wt. in toilet bar Base 2, 10% slurry, 25 C
[6] = compound at 10% by wt. in toilet bar Base 3, 10% slurry, 25 C

Compound | pH of 1% Solution ([1]; pH 1) | Aqueous slurry pH, Base 1 [2] | Aqueous slurry pH, Base 2 [2] | Aqueous slurry pH, Base 3 [2] | pH of 1% Solution [1, 3] | Aqueous slurry pH, Base 1 [2, 4] | Aqueous slurry pH, Base 2 [2, 5] | Aqueous slurry pH, Base 3 [2, 6] | Aqueous slurry pH of bars [2] | Latent acidification effect [2]
N.N.N.O=P(O)(O)O [Ammonium Phosphate] | 4.2 | 6.1 | 7.6 | 8.7 | – | – | – | – | – | –
Cl.N [Ammonium Chloride] | – | – | – | – | 4.9 | 6.5 | 8.7 | 9.1 | – | –
O=C([O-])[O-].[Ca+2] [Calcium Carbonate, reference compound] | 9.2 | 7.0 | 9.0 | 10.6 | – | – | – | – | – | –
O=S(=O)([O-])[O-].[Mg+2] [Magnesium Sulfate] | 6.5 | 6.2 | 8.6 | 10.2 | – | – | – | – | – | –
[Cl-].[Cl-].[Mg+2] [Magnesium Chloride] | 5.2 | 5.9 | 8.4 | 10.0 | – | – | – | – | – | –
CC(=O)O.N [Ammonium Acetate] | 6.9 | 6.8 | 8.9 | 9.5 | – | – | – | – | – | –
O=S(=O)([O-])[O-].[Na+].[Na+] [Sodium Sulfate, reference compound] | 9.1 | 6.9 | 8.9 | 10.3 | – | – | – | – | – | –
[Ca+2].[Cl-].[Cl-] [Calcium Chloride] | 9.3 | 4.2 | 6.9 | 9.8 | – | – | – | – | – | –
Calcium Phosphate | 3.7 | 5.4 | 7.2 | 8.6 | – | – | – | – | – | –
N.N.O=S(=O)(O)O [Ammonium Sulfate] | – | – | – | – | 5.0 | 6.7 | 8.9 | 9.4 | – | –
O=S(=O)([O-])[O-].O=S(=O)([O-])[O-].O=S(=O)([O-])[O-].[Fe+3].[Fe+3] [Ferric Sulfate] | 1.7 | 1.5 | 7.5 | 9.1 | – | – | – | – | – | –
O=P(O)(O)O [Sodium Phosphate, reference compound] | 9.1 | 7.2 | 8.9 | 10.2 | – | – | – | – | – | –
O=S(=O)([O-])[O-].[Ca+2] [Calcium Sulfate] | – | 4.9 | 8.8 | 10.2 | – | – | – | – | significant drop in pH | latent acidification effect
[Ca+2].[OH-].[OH-] [Calcium Hydroxide, reference compound] | 11.8 | 11.9 | 12.1 | 11.9 | – | – | – | – | – | –
O=C([O-])O.[Na+] [Sodium Bicarbonate, reference compound] | – | – | – | – | 8.3 | 7.5 | 8.8 | 9.4 | – | –
[Cl-].[Na+] [Sodium Chloride, reference compound] | – | – | – | – | 8.1 | 6.7 | 8.7 | 10.1 | – | –
O=[N+]([O-])[O-].O=[N+]([O-])[O-].[Ca+2] [Calcium Nitrate] | 5.3 | 5.2 | 8.6 | 10.1 | – | – | – | – | – | –
CC(=O)[O-].CC(=O)[O-].[Ca+2] [Calcium Acetate] | 8.2 | 5.2 | 8.1 | 10.1 | – | – | – | – | – | –
